Results taken from patent publication US20100076015A1, “Aminopyridine Derivatives” (VANTIA LIMITED, priority 2008, published 2010).

Columns and labels:
Type in all cases: biochemical
[1] = target: trypsin; assay: Enzyme selectivity: trypsin (chromogenic substrate S-2222); details: human enzyme, chromogenic substrate S-2222, 37° C.
Experimental: (§1) Determination of Enzyme Selectivity
(§2) Selected compounds were further screened for inhibitory activity against other trypsin-like serine proteases using the appropriate enzyme and chromogenic substrate (Chromogenix AB). The activity against the following human enzymes was tested (substrate in brackets):—plasma kallikrein (S-2302), thrombin (S-2238), plasmin (S-2390) and trypsin (S-2222). The enzyme was incubated at 37° C. with the chromogenic substrate. Residual enzyme activity (initial rate of reaction) was determined by measuring the change in optical absorbance at 405 nm.

[2] = target: thrombin (Homo sapiens, UniProt P00734); assay: Enzyme selectivity: thrombin (chromogenic substrate S-2238); details: chromogenic substrate S-2238, 37° C.
Experimental: as §1, §2

[3] = target: plasmin (Homo sapiens, UniProt P00747); assay: Enzyme selectivity: plasmin (chromogenic substrate S-2390); details: chromogenic substrate S-2390, 37° C.
Sequence of plasmin (P00747 581-810 limits assumed): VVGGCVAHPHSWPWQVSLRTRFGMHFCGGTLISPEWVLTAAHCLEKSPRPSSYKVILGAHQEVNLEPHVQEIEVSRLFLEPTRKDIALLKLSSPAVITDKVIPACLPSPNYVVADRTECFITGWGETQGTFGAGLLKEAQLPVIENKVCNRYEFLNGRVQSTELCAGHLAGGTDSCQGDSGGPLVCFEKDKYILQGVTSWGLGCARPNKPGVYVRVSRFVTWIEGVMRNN
Sequence of plasmin (P00747 97-580 partner limits assumed): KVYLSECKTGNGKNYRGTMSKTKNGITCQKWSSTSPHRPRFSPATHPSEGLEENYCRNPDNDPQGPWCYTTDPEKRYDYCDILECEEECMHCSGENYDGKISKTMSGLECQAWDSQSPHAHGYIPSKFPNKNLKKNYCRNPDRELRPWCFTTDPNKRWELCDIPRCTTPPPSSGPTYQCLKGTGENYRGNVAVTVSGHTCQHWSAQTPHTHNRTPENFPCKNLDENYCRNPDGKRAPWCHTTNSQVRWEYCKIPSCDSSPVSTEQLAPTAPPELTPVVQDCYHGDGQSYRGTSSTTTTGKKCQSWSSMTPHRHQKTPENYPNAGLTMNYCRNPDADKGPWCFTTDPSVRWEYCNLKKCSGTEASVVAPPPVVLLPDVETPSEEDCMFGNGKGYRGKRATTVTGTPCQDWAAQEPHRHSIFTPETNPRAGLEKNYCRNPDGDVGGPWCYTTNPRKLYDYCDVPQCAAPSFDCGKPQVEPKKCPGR
Experimental: as §1, §2

[4] = target: T1, Human KLK1 (Homo sapiens, UniProt P06870); assay: Determination of the IC50 for KLK1 (fluorogenic substrate H-DVal-Leu-Arg-AFC); details: 37° C.
T1 construct: purchased Callbiochem (Calbiochem)
T1 sequence (P06870 25-262): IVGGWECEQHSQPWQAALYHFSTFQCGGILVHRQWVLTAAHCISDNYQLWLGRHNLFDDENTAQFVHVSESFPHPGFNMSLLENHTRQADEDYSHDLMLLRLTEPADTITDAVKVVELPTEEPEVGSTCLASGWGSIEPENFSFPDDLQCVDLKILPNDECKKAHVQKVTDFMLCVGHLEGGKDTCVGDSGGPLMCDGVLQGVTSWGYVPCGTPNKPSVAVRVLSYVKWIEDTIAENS
In short: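 Human KLK1 incubated at 37° C with fluorogenic substrate H-DVal-Leu-Arg-AFC and a range of test compound concentrations. Residual activity taken as initial reaction rate from absorbance change at 410 nm; IC50 derived from these rates.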

[5] = target: plasma kallikrein (Homo sapiens, UniProt P03952); assay: Enzyme selectivity: plasma kallikrein (chromogenic substrate S-2302); details: chromogenic substrate S-2302, 37° C.
Sequence of plasma kallikrein (P03952 20-638): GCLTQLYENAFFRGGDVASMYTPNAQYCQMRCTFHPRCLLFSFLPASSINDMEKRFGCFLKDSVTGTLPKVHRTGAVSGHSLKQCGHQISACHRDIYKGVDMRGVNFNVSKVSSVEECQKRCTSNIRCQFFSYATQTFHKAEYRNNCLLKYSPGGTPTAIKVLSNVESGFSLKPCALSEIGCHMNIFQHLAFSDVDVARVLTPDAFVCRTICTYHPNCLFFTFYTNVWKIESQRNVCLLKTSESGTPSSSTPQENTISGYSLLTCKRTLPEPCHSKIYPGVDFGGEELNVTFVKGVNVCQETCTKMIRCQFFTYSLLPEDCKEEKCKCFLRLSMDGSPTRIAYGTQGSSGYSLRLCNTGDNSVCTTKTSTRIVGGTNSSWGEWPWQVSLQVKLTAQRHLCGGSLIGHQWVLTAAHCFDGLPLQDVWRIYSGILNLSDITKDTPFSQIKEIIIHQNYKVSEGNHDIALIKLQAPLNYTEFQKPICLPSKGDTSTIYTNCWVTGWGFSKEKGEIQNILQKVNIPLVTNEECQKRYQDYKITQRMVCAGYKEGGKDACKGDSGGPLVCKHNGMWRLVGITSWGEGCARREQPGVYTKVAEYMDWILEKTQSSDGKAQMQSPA
Experimental: as §1, §2

## CC(C)N(C)[C@@H](C)C(=O)N[C@@H](CC1CCCCC1)C(=O)NCc1ccc(N)nc1 [Example 381, (S)—N-{(S)-1-[(6-Amino-pyridin-3-ylmethyl)-carbamoyl]-2-cyclohexyl-ethyl}-2-(isopropyl-methyl-amino)-propionamide]
[1]
  IC50: > 10 µM
[2]
  IC50: > 10 µM
[3]
  IC50: > 10 µM
[4]
  IC50: 0.0011 µM
[5]
  IC50: > 10 µM

## CCC(C)[C@@H](N)C(=O)N[C@@H](Cc1cccc2ccccc12)C(=O)NCc1ccc(N)nc1 (stereo partly drawn) [Example 1, (R)-2-Amino-3-methyl-pentanoic acid {(S)-1-[(6-amino-pyridin-3-ylmethyl)-carbamoyl]-2-naphthalen-1-yl-ethyl}-amide]
[1]
  IC50: > 10 µM
[2]
  IC50: > 10 µM
[3]
  IC50: > 10 µM
[4]
  IC50: 0.00096 µM
[5]
  IC50: > 10 µM

## Cc1cccc(C[C@H](NC(=O)c2[nH]c(C)cc2C)C(=O)NCc2ccc(N)nc2)c1 [Example 234, 3,5-Dimethyl-1H-pyrrole-2-carboxylic acid {(S)-1-[(6-amino-pyridin-3-ylmethyl)-carbamoyl]-2-m-tolyl-ethyl}-amide]
[1]
  IC50: > 10 µM
[2]
  IC50: > 10 µM
[3]
  IC50: > 10 µM
[4]
  IC50: 0.0032 µM
[5]
  IC50: > 10 µM

## CC(C)N(C)[C@@H](C)C(=O)N(C)[C@@H](CC1CCCCC1)C(=O)NCc1ccc(N)nc1 [Example 437, (S)—N-{(S)-1-[(6-Amino-pyridin-3-ylmethyl)-carbamoyl]-2-cyclohexyl-ethyl}-2-(isopropyl-methyl-amino)-N-methyl-propionamide]
[1]
  IC50: > 10 µM
[2]
  IC50: > 10 µM
[3]
  IC50: > 10 µM
[4]
  IC50: 0.0042 µM
[5]
  IC50: > 10 µM

## CCN1CCC[C@@H]1C(=O)N[C@@H](Cc1ccc(F)c(F)c1)C(=O)NCc1ccc(N)nc1 [Example 131, (R)-1-Ethyl-pyrrolidine-2-carboxylic acid [(S)-1-[(6-amino-pyridin-3-ylmethyl)-carbamoyl]-2-(3,4-difluoro-phenyl)-ethyl]-amide]
[1]
  IC50: > 10 µM
[2]
  IC50: > 10 µM
[3]
  IC50: > 10 µM
[4]
  IC50: 0.00054 µM
[5]
  IC50: > 10 µM

## CN1CCC[C@@H]1C(=O)N[C@@H](Cc1cccc(C(F)(F)F)c1)C(=O)NCc1ccc(N)nc1 [Example 91, (R)-1-Methyl-pyrrolidine-2-carboxylic acid [(S)-1-[(6-amino-pyridin-3-ylmethyl)-carbamoyl]-2-(3-trifluoromethyl-phenyl)-ethyl]-amide]
[1]
  IC50: > 10 µM
[2]
  IC50: > 10 µM
[3]
  IC50: > 10 µM
[4]
  IC50: 0.0021 µM
[5]
  IC50: > 10 µM

## Nc1ccc(CNC(=O)[C@H](Cc2ccc(Cl)c(Cl)c2)NC(=O)[C@H](N)Cc2ccccc2)cn1 [Example 54, (R)-2-Amino-N-[(S)-1-[(6-amino-pyridin-3-ylmethyl)-carbamoyl]-2-(3,4-dichloro-phenyl)-ethyl]-3-phenyl-propionamide]
[1]
  IC50: > 10 µM
[2]
  IC50: > 10 µM
[3]
  IC50: > 10 µM
[4]
  IC50: 0.00029 µM
[5]
  IC50: > 10 µM

## Cc1cc[nH]c1C(=O)N[C@@H](Cc1ccc(F)c(F)c1)C(=O)NCc1ccc(N)nc1 [Example 226, 3-Methyl-1H-pyrrole-2-carboxylic acid [(S)-1-[(6-amino-pyridin-3-ylmethyl)-carbamoyl]-2-(3,4-difluoro-phenyl)-ethyl]-amide]
[1]
  IC50: > 10 µM
[2]
  IC50: > 10 µM
[3]
  IC50: > 10 µM
[4]
  IC50: 0.0101 µM
[5]
  IC50: > 10 µM

## Nc1ccc(CNC(=O)[C@H](Cc2cccc3ccccc23)NC(=O)c2ccc[nH]2)cn1 [Example 228, 1H-Pyrrole-2-carboxylic acid {(S)-1-[(6-amino-pyridin-3-ylmethyl)-carbamoyl]-2-naphthalen-1-yl-ethyl}-amide]
[1]
  IC50: > 10 µM
[2]
  IC50: > 10 µM
[3]
  IC50: > 10 µM
[4]
  IC50: 0.0321 µM
[5]
  IC50: > 10 µM

## CCN(CC)[C@@H](C)C(=O)N[C@@H](CC1CCCCC1)C(=O)NCc1ccc(N)nc1 [Example 390, (S)—N-{(S)-1-[(6-Amino-pyridin-3-ylmethyl)-carbamoyl]-2-cyclohexyl-ethyl}-2-diethylamino-propionamide]
[1]
  IC50: > 10 µM
[2]
  IC50: > 10 µM
[3]
  IC50: > 10 µM
[4]
  IC50: 0.0027 µM
[5]
  IC50: > 10 µM

## CC(C)N(C)[C@@H](C)C(=O)N[C@@H](Cc1ccc(F)c(F)c1)C(=O)NCc1ccc(N)nc1 [Example 176, (S)—N-[(S)-1-[(6-Amino-pyridin-3-ylmethyl)-carbamoyl]-2-(3,4-difluoro-phenyl)-ethyl]-2-(isopropyl-methyl-amino)-propionamide]
[1]
  IC50: > 10 µM
[2]
  IC50: > 10 µM
[3]
  IC50: > 10 µM
[4]
  IC50: 0.004 µM
[5]
  IC50: > 10 µM

## CCC(C)[C@@H](NC)C(=O)N[C@@H](Cc1ccc(Cl)c(Cl)c1)C(=O)NCc1ccc(N)nc1 (stereo partly drawn) [Example 3, (R)-3-Methyl-2-methylamino-pentanoic acid [(S)-1-[(6-amino-pyridin-3-ylmethyl)-carbamoyl]-2-(3,4-dichloro-phenyl)-ethyl]-amide]
[1]
  IC50: > 10 µM
[2]
  IC50: > 10 µM
[3]
  IC50: > 10 µM
[4]
  IC50: 0.00022 µM
[5]
  IC50: > 10 µM

## CCC(C)[C@H](C(=O)N[C@@H](Cc1csc2ccccc12)C(=O)NCc1ccc(N)nc1)N(C)S(C)(=O)=O (stereo partly drawn) [Example 213, (R)-2-(Methanesulfonyl-methyl-amino)-3-methyl-pentanoic acid {(S)-1-[(6-amino-pyridin-3-ylmethyl)-carbamoyl]-2-benzo[b]thiophen-3-yl-ethyl}-amide]
[1]
  IC50: > 10 µM
[2]
  IC50: > 10 µM
[3]
  IC50: > 10 µM
[4]
  IC50: 0.0028 µM
[5]
  IC50: > 10 µM

## CCC(C)[C@@H](N)C(=O)N[C@@H](Cc1cccc(C(F)(F)F)c1)C(=O)NCc1ccc(N)nc1 (stereo partly drawn) [Example 30, (R)-2-Amino-3-methyl-pentanoic acid [(S)-1-[(6-amino-pyridin-3-ylmethyl)-carbamoyl]-2-(3-trifluoromethyl-phenyl)-ethyl]-amide]
[1]
  IC50: > 10 µM
[2]
  IC50: > 10 µM
[3]
  IC50: > 10 µM
[4]
  IC50: 0.0011 µM
[5]
  IC50: > 10 µM

## Cc1cc(C)c(C(=O)N[C@@H](Cc2cccc(C(F)(F)F)c2)C(=O)NCc2ccc(N)nc2C)[nH]1 [Example 277, 3,5-Dimethyl-1H-pyrrole-2-carboxylic acid [(S)-1-[(6-amino-2-methyl-pyridin-3-ylmethyl)-carbamoyl]-2-(3-trifluoromethyl-phenyl)-ethyl]-amide]
[1]
  IC50: > 10 µM
[2]
  IC50: > 10 µM
[3]
  IC50: > 10 µM
[4]
  IC50: 0.0009 µM
[5]
  IC50: > 10 µM

## CCC(C)[C@H](C(=O)N[C@@H](Cc1ccc(Cl)c(Cl)c1)C(=O)NCc1ccc(N)nc1)N(C)C (stereo partly drawn) [Example 398, (R)-2-Dimethylamino-3-methyl-pentanoic acid [(S)-1-[(6-amino-pyridin-3-ylmethyl)-carbamoyl]-2-(3,4-dichloro-phenyl)-ethyl]-amide]
[1]
  IC50: > 10 µM
[2]
  IC50: > 10 µM
[3]
  IC50: > 10 µM
[4]
  IC50: 0.00082 µM
[5]
  IC50: > 10 µM
